In patent US9090596B2, “Disubstituted 3,4-diamino-3-cyclobutene-1,2-dione compounds for use in the treatment of chemokine-mediated pathologies” (GALDERMA RESEARCH & DEVELOPMENT, priority 2011, dated 2015) one finds IC50 and half-life data, which are given here for one molecule.

The target of one data set is CXCR1 receptor (Homo sapiens (Human), UniProt P25024). Kind of data set: β-arrestin 2 recruitment test, U2OS hCXCR1 β-arrestin cells stimulated with CXCL8. Type of data set: cell-based. The note with it: CXCL8 stimulation. On the procedure: (§1) The in vitro affinity of the compounds of the present invention for the CXCR1 and CXCR2 receptors was determined on a functional test of the β-arrestin recruitment type after receptor activation.
(§2) β-Arrestin Recruitment Assay:
(§3) “PathHunter HEK293-CXCR2” or “U2OS hCXCR1 β-arrestin” cells (DiscoveRx Corporation) were seeded overnight at 10 000 cells/well (384-well format) in 20 μl of Opti MEM I medium. A preincubation with the antagonist or the vehicle for 30 min at 37° C. and 5% CO2 was followed by 60 minutes of stimulation with CXCL8 at 37° C. and 5% CO2. The cells were then placed at ambient temperature for 30 minutes. The PathHunter detection reagent (DiscoveRx Corporation) was added. […] The data were analyzed by means of a non-linear curve procedure using the XLFit4 exploitation software (IDBS) and the IC50 values were determined.
(In general: Activated receptors often draw arrestin, which recruitment assays turn into a signal.)

For a further data set, the target named is CXCR2 receptor (Homo sapiens (Human), UniProt P25025). As to the kind of experiment: β-arrestin 2 recruitment test, PathHunter HEK293-CXCR2 cells stimulated with CXCL8. It counts as cell-based. The following applies: CXCL8 stimulation. On the procedure: as §1, §2, §3
Another data set addresses CCR4 (Homo sapiens (Human), UniProt P51679). Kind of data set: Receptor profiling: calcium flux (FLIPR TETRA) on Chem-1 cells expressing chemokine receptor. Type of data set: cell-based. The following applies: antagonist activity, reference agonist at AC80. The procedure: (§4) Measurement of Calcium Flux on Cells:
(§5) The experiments were carried out on the FLIPR TETRA® platform from Molecular Devices. After the basal level had been read, the compounds were added to the cells expressing the chemokine receptor of interest and the agonist activity was read at 10 seconds.
(§6) Each cell line expressing a chemokine receptor was established on the basis of the Chem-1 cell stably expressing the recombinant form of the chemokine receptor and also an associated G protein, with the aim of coupling the receptor to the calcium signalling pathway. 21 receptors belonging to the chemokine receptor family (CCRs and CXCRs) were analyzed. All the CXCR2 antagonists were tested in a dose-dependent manner and the concentration corresponding to 50% inhibition of the response was determined (IC50).
(In general: Calcium assays in cells follow changes in intracellular calcium, usually with a dye or a luminescent sensor.)

In a further data set the target is CXCR3 (Homo sapiens (Human), UniProt P49682). The description is as above. Type of data set: cell-based. The following applies: antagonist activity, reference agonist at AC80. On the procedure: as §4, §5, §6
Data set [1] in a line: Metabolic stabilities in hepatic microsomes. It counts as in vitro ADME. The following applies: pH 7.4; hepatic microsomes 0.5 mg/ml, compound 1 μM; read-out: Half-life time. The procedure:
Hepatic microsomes (Becton Dickinson) were incubated at a protein concentration of 0.5 mg/ml in the reaction medium.
The reaction medium of the microsomes was composed of phosphate buffer, pH: 7.4 at 100 mM, of MgCl2 at 100 mM (50/50), of an […] composed of a mixture of […] (NADP) and of glucose-6-phosphate (G6P) at 1 mg/ml and of glucose-6-phosphate dehydroganase (G6PDH) at 4 U/ml. The compounds were tested at 1 μM (0.1% DMSO).
The samples of incubation medium after addition of the microsomes were taken at times 5, 10, 15, 30 and 60 minutes. At each time, the metabolic reaction was stopped by adding methanol (1 volume incubation medium/3 volumes of methanol). The disappearance of the parent product was measured by LC/MS/MS analysis. The time for which 50% of parent Product disappeared (T½) was calculated from the kinetics of disappearance of the parent product as a function of time.

Data set [2] is described as follows: Metabolic stabilities in hepatocytes. It counts as in vitro ADME. The following applies: human hepatocytes, compound 1 μM; read-out: Half-life time. The procedure:
The human hepatocytes were supplied by Biopredic in 24-well plates.
At each time, the metabolic reaction was stopped by adding methanol (1 volume incubation medium/3 volumes of methanol). The disappearance of the parent product was measured by LC/MS/MS analysis. The time for which 50% (T½) of parent product disappeared was calculated from the kinetics of disappearance of the parent product as a function of time.

What is called IC50 is the concentration that gives 50% inhibition. A word on the half-life: it is how long it takes for the measured level to halve.

CXCR1 receptor, sequence (P25024 whole entry): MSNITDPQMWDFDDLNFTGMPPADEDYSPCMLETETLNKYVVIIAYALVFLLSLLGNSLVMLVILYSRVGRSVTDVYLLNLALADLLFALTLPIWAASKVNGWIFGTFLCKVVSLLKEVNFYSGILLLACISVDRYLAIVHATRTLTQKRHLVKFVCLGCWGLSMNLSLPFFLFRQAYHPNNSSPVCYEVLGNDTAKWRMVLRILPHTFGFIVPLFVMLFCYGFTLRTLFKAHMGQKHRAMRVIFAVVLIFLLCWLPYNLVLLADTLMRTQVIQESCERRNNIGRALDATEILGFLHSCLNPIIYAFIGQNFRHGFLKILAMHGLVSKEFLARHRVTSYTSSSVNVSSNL
CXCR3, sequence (P49682 whole entry): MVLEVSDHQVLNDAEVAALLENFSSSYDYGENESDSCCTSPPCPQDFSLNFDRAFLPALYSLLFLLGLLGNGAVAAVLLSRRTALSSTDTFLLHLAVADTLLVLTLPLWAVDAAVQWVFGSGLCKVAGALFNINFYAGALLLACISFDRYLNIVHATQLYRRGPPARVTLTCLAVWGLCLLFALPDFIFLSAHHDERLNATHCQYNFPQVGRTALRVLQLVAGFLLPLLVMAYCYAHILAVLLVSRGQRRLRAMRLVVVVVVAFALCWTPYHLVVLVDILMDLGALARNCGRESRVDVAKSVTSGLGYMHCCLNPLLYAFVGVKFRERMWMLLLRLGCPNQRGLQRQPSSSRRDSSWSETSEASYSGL
CXCR2 receptor, sequence (P25025 whole entry): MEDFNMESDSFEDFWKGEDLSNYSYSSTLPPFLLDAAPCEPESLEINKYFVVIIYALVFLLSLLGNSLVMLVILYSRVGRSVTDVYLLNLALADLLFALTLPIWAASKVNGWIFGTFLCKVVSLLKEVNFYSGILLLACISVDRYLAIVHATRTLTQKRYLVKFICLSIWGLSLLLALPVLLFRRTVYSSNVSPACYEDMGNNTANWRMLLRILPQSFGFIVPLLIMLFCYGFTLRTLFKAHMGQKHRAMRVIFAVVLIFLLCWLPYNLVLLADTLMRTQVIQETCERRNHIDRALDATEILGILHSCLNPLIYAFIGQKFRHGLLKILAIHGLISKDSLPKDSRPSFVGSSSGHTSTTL
CCR4, sequence (P51679 whole entry): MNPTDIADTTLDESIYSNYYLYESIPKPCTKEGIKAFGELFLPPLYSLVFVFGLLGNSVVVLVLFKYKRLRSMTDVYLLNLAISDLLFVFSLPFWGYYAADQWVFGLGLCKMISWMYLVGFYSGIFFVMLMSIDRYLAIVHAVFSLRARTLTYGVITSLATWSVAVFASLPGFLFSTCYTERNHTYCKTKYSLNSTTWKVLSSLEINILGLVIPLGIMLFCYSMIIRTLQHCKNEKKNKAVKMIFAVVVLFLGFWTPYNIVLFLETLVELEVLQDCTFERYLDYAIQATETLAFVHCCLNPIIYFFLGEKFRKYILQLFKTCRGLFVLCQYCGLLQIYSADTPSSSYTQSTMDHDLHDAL

Regarding `Cc1ccc([C@H](Nc2c(Nc3ccc(Cl)c(S(=O)(=O)N4CCN(C)CC4)c3O)c(=O)c2=O)C2(C)COC2)o1` [Example 53, 3-[4-chloro-2-hydroxy-3-(4-methylpiperazine-1-sulfonyl)phenylamino]-4-{[(R)-(5-methylfuran-2-yl)-(3-methyloxetan-3-yl)methyl]amino}cyclobut-3-ene-1,2-dione], the IC50 against CXCR1 receptor stood at 115 nM; at CXCR2 receptor it was 30 nM; at CCR4 it was 450 nM; on CXCR3, 920 nM. Further, the figures for the half-life at 1 μM in data set [1] and in data set [2] were 0.783 h and 3.1 h, respectively.
